Measurements taken from patent publication US11613542B2, “Sulfonylureas and sulfonylthioureas as NLRP3 inhibitors” (Inflazome Limited, priority 2017, dated 2023).
Where a name gives a salt, the structure may show the parent alone. Read-outs that look alike come from different tables or passages of the source.

Assays:
[1] = Pharmacokinetic parameters in male Sprague Dawley rats (intravenous and oral administration); assay type: in vivo; settings: dose per compound (mg/kg); for bioavailability: rat; for clearance / half-life / AUC / Vd / CL/F / Cmax / Tmax / Cl / T1/2 / Vdss / Cl/F: rat plasma; for Vd: read-out: Vdss
Method in brief: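 IV dosing via tail vein (solution in water or DMSO:PBS 10:90) and oral dosing (water or DMSO:water 10:90); some oral groups fasted overnight. Serial plasma sampled at 8, 9 or 12 time-points up to 24 h post dose. PK parameters derived from LC-MS/MS plasma concentrations.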

NLRP3 [2] = biological target: T1, NLRP3 (Homo sapiens, UniProt Q96P20); test: THP-1 cells pyroptosis assay; assay type: cell-based; set-up: Seed THP-1 cells (25,000 cells/well) containing 1.0 μg/ml LPS; host or cells: THP-1 cells, LPS-primed, nigericin-stimulated; settings: THP-1 cells, 1.0 μg/ml LPS, compound 3 hrs, nigericin 5 μM 1 hr, resazurin readout; read-out: THP IC50
Method in brief: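 THP-1 cells (25,000/well) in serum-free RPMI with 1.0 μg/ml LPS, treated with compound (8-point half-log dilution, 10 μM top, 0.1% DMSO), then nigericin 5 μM final. Viability read by resazurin (100 μM final, 1-2 h, 37° C) fluorescence Ex 560/Em 590 nm; IC50 from 4-parameter variable-slope fit.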

NLRP3 [3] = biological target: T1, NLRP3; test: Human whole blood IL1β release assay; assay type: cell-based; set-up: Human whole blood in Li-heparin tubes was obtained from healthy donors; from tissue; host or cells: human whole blood from healthy donors, LPS-primed, nigericin-stimulated; settings: human whole blood, 1 μg/ml LPS, compound 3 hrs, nigericin 10 μM 1 hr, IL-1β AlphaLisa; read-out: HWB IC50
Method in brief: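 Healthy-donor human whole blood (Li-heparin) primed with 1 μg/ml LPS, with compound (8-point half-log, 10 μM top) or 0.1% DMSO for 3 h at 37 °C, then 10 μM nigericin (final) for 1 h. Supernatant IL-1β read by AlphaLISA; IC50 from 4-parameter variable-slope fit.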

[4] = male, Sprague Dawley, plasma, oral administration, read-out: Bioavailability
[5] = male, Sprague Dawley, intravenous administration
[6] = male, Sprague Dawley, intravenous administration, read-out: AUC
[7] = male, Sprague Dawley, oral administration
[8] = male, Sprague Dawley, oral administration, read-out: AUC
[9] = male, Sprague Dawley, oral administration, read-out: Cmax
[10] = male, Sprague Dawley, oral administration, read-out: Tmax

T1 sequence (Q96P20 whole entry): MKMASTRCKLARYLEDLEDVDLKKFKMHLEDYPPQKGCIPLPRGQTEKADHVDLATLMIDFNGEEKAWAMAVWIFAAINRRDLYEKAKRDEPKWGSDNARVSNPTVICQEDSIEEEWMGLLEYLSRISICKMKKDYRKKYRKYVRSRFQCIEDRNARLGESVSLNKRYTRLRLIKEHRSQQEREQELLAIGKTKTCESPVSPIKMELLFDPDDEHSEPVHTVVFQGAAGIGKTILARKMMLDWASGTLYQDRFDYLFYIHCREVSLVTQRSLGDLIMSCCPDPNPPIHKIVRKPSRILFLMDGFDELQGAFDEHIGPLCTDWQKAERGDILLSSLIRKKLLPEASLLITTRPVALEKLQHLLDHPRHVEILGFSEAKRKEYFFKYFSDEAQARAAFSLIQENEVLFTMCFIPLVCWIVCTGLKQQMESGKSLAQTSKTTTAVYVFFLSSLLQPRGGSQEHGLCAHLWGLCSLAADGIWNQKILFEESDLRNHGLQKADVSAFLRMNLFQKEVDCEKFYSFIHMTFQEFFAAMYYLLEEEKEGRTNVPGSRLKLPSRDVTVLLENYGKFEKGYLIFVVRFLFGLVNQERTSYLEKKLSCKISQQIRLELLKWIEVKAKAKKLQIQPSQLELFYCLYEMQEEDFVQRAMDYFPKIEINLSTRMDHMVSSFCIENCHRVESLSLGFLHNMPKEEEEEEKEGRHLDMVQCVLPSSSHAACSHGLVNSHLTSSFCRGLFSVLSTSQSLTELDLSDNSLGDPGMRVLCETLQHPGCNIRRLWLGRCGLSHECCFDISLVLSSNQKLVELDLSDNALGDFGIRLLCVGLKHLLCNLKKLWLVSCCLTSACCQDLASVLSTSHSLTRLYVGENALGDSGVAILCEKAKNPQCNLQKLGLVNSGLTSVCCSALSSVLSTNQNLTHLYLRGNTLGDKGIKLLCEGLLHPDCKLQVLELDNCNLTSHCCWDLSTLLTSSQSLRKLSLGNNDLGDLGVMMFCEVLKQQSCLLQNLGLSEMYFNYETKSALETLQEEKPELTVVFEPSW

clearance [1, 5] [mL/min/kg]	half-life [1, 5] [h]	AUC [1, 6] [ng·h/mL]	Vd [1, 5] [L/kg]	IC50 (NLRP3 [2]) [nM]	IC50 (NLRP3 [3]) [nM]	AUC ([1]; intravenous administration) [ng·h/mL]	Cl ([1]; intravenous administration) [mL/min/kg]	T1/2 ([1]; intravenous administration) [h]	Vdss ([1]; intravenous administration) [L/kg]	Structure (SMILES)	other results
2.6	3.7	6420	0.38	< 640	< 400	–	–	–	–	CN(C)CCn1ccc(S(=O)(=O)NC(=O)Nc2c3c(cc4c2CCC4)CCC3)n1 [Example 7, 1-(2-(Dimethylamino)ethyl)-N-((1,2,3,5,6,7-hexahydro-s-indacen-4-yl)carbamoyl)-1H-pyrazole-3-sulfonamide]	bioavailability [1, 4]: 52.7%; CL/F [1, 7]: 5 mL/min/kg; half-life [1, 7]: 3 h; AUC [1, 8]: 15200 ng·h/mL; Cmax [1, 9]: 3250 ng/mL; Tmax [1, 10]: 1 h
1.1	2.5	15800	0.18	< 160	< 1600	–	–	–	–	CN(C)CC(C)(C)n1ccc(S(=O)(=O)NC(=O)Nc2c3c(cc4c2CCC4)CCC3)n1 [Example 17, 1-(1-(Dimethylamino)-2-methylpropan-2-yl)-N-((1,2,3,5,6,7-hexahydro-s-indacen-4-yl)carbamoyl)-1H-pyrazole-3-sulfonamide]	bioavailability [1, 4]: 18.5%; CL/F [1, 7]: 6.1 mL/min/kg; half-life [1, 7]: 2.3 h; AUC [1, 8]: 8760 ng·h/mL; Cmax [1, 9]: 2810 ng/mL; Tmax [1, 10]: 0.67 h
2.4	2.9	11300	0.32	< 160	< 400	–	–	–	–	CN1CC[C@H]1Cn1ccc(S(=O)(=O)NC(=O)Nc2c3c(cc4c2CCC4)CCC3)n1 [Example 20, (S)—N-((1,2,3,5,6,7-Hexahydro-s-indacen-4-yl)carbamoyl)-1-((1-methylazetidin-2-yl)methyl)-1H-pyrazole-3-sulfonamide]	–
–	–	–	–	< 160	< 1600	302.7	55.3	1.6	1.66	CC(C)n1nc(S(=O)(=O)NC(=O)Nc2c3c(cc4c2CCC4)CCC3)cc1C(=O)N1CCC1 [Example 131, 5-(Azetidine-1-carbonyl)-N-((1,2,3,5,6,7-hexahydro-s-indacen-4-yl)carbamoyl)-1-isopropyl-1H-pyrazole-3-sulfonamide, partial ammonium salt]	–
–	–	–	–	< 160	< 400	415.0	40.3	6.4	7.96	CC(C)c1cc(F)cc(C(C)C)c1NC(=O)NS(=O)(=O)c1cc(C(=O)N2CCC2)n(C)n1 [Example 145, 5-(azetidine-1-carbonyl)-N-((4-fluoro-2,6-diisopropylphenyl)carbamoyl)-1-methyl-1H-pyrazole-3-sulfonamide, sodium salt]	–
–	–	–	–	< 640	< 400	283.3	59.2	3.3	4.08	CC(C)c1cc(F)cc(C(C)C)c1NC(=O)NS(=O)(=O)c1cc(C(=O)N(C)C)n(C)n1 [Example 160, 3-(N-((4-Fluoro-2,6-diisopropylphenyl)carbamoyl)sulfamoyl)-N,N,1-trimethyl-1H-pyrazole-5-carboxamide, sodium salt]	AUC ([1]; oral administration): 769.7 ng·h/mL; Cl/F ([1]; oral administration): 109.8 mL/min/kg; Cmax ([1]; oral administration): 494.7 ng/mL; T1/2 ([1]; oral administration): 9.7 h; Tmax ([1]; oral administration): 0.17 h; bioavailability ([1]; oral administration): 54.3
–	–	–	–	< 160	< 800	1723.1	25.0	0.1	0.24	CCN(C)C(=O)c1cc(S(=O)(=O)NC(=O)Nc2c3c(cc4c2CCC4)CCC3)nn1C [Example 162, N-Ethyl-3-(N-((1,2,3,5,6,7-hexahydro-s-indacen-4-yl)carbamoyl)sulfamoyl)-N,1-dimethyl-1H-pyrazole-5-carboxamide]	–
–	–	–	–	< 640	< 400	333.7	48.7	0.5	0.99	CC(C)c1cccc(C(C)C)c1NC(=O)NS(=O)(=O)c1cc(C(=O)N(C)C)n(C)n1 [Example 167, 3-(N-((2,6-Diisopropylphenyl)carbamoyl)sulfamoyl)-N,N,1-trimethyl-1H-pyrazole-5-carboxamide, sodium salt]	–
–	–	–	–	< 160	< 400	3389.9	24.8	25.3	17.78	CN(C)C(=O)c1cc(S(=O)(=O)NC(=O)Nc2c3c(cc4c2CCC4)CCC3)nn1C [Example 169, 3-(N-((1,2,3,5,6,7-Hexahydro-s-indacen-4-yl)carbamoyl)sulfamoyl)-N,N,1-trimethyl-1H-pyrazole-5-carboxamide, sodium salt]	AUC ([1]; oral administration): 1052.0 ng·h/mL; Cl/F ([1]; oral administration): 49.5 mL/min/kg; Cmax ([1]; oral administration): 599.6 ng/mL; T1/2 ([1]; oral administration): 3.4 h; Tmax ([1]; oral administration): 0.25 h; bioavailability ([1]; oral administration): 62.0
–	–	–	–	< 160	< 400	786.6	114.1	0.3	2.37	CN(CCO)C(=O)c1cc(S(=O)(=O)NC(=O)Nc2c3c(cc4c2CCC4)CCC3)nn1C [Example 176, 3-(N-((1,2,3,5,6,7-Hexahydro-s-indacen-4-yl)carbamoyl)sulfamoyl)-N-(2-hydroxyethyl)-N,1-dimethyl-1H-pyrazole-5-carboxamide, partial ammonium salt]	–
